These results are taken from paper PMC10518257 (Nature Cancer, 2023).

One experiment relates to LUAD-0057AS1 PDX. Description: PDX efficacy study.
In another experiment the test system is LUAD-0087AS2 PDX. The experiment is described as follows: PDX efficacy study. To be noted: LUAD-0087AS2, 30 mg/kg BID, individual animals.

“And” between values parts separate entries of the source, which are not always exact repeats. Equal values may be shown once.

On to `COc1cc2nccc(Oc3ccc(NC(=O)C4(C(=O)Nc5ccc(F)cc5)CC4)cc3)c2cc1OC` [Cabozantinib], for which the tumor shrinkage entry with LUAD-0057AS1 PDX (30 mg per kg QD) is on record as “did not lead to any tumor shrinkage”. Moreover, in the experiment with LUAD-0057AS1 PDX (30 mg/kg QD), the “Area Under Curve of tumor growth, Mean” value is given as 1051. Moreover, the Tumor volume in the experiment on LUAD-0057AS1 PDX (30 mg/kg QD, day 0, individual animals) was 139.24 mm3 and 130.83 mm3 and 132.84 mm3 and 134.85 mm3 and 137.16 mm3 and 136.86 mm3 and 128.59 mm3 (2×); with LUAD-0057AS1 PDX (30 mg/kg QD, day 3, individual animals), 143.69 mm3 (2×) and 141.55 mm3 and 159.83 mm3 and 157.37 mm3 and 161.94 mm3 and 155.09 mm3 and 150.43 mm3; in the experiment on LUAD-0057AS1 PDX (30 mg/kg QD, day 7, individual animals), 150.13 mm3 and 145.84 mm3 and 157.07 mm3 and 171.9 mm3 and 159.66 mm3 and 132.84 mm3 and 161.94 mm3 and 154.85 mm3; in the experiment on LUAD-0057AS1 PDX (30 mg/kg QD, day 10, individual animals), 150.13 mm3 and 154.85 mm3 (2×) and 171.06 mm3 and 197.55 mm3 and 217.15 mm3 and 132.84 mm3 and 165.92 mm3; in the experiment with LUAD-0057AS1 PDX (30 mg/kg QD, day 14, individual animals), 150.13 mm3 and 176.28 mm3 and 188.03 mm3 (3×) and 224.35 mm3 and 288.71 mm3 and 168.78 mm3; in the experiment on LUAD-0057AS1 PDX (30 mg/kg QD, day 19, individual animals), 150.13 mm3 and 183.33 mm3 and 195.09 mm3 and 204.49 mm3 and 294.92 mm3 and 176.28 mm3 and 193.69 mm3 and 188.03 mm3. Further, the Tumor volume in the experiment with LUAD-0057AS1 PDX (30 mg/kg QD, day 23, individual animals) was 194.67 mm3 and 219.37 mm3 and 246.79 mm3 and 251.12 mm3 and 340.1 mm3 and 242.75 mm3 and 230.72 mm3 and 228.34 mm3. In the experiment on LUAD-0057AS1 PDX (30 mg/kg QD, end of study, individual tumors), the “Change in Tumor Volume” value was 39.809% and 67.6756% and 85.7799% and 86.2217% and 147.959% and 77.371% and 79.423% and 77.5721%.

`COC1(C(=O)NC(C)c2ccc(-n3cc(F)cn3)nc2)CCC(c2nc(C)cc(Nc3cc(C)[nH]n3)n2)CC1` (stereo not drawn) [Prasletinib]: the Tumor volume was 122.74 and 122.52 (2×) and 118.47 (2×) with LUAD-0087AS2 PDX (treatment day 0); 116.87 and 110.97 (2×) and 118.47 and 114.83 in the experiment on LUAD-0087AS2 PDX (treatment day 3); 100.16 and 96.62 (2×) and 101.37 and 91.61 in the experiment with LUAD-0087AS2 PDX (treatment day 7); 100.16 and 103.77 and 96.62 and 99.78 and 95.03 in the experiment on LUAD-0087AS2 PDX (treatment day 10); 96.88 and 83.83 and 88.25 and 99.78 and 90.28 in the experiment with LUAD-0087AS2 PDX (treatment day 14); 103.77 and 79.42 and 83.83 (2×) and 96.62 in the experiment with LUAD-0087AS2 PDX (treatment day 17). Further, the Tumor volume was 90.28 and 70.82 and 74.9 and 83.83 (2×) in the experiment on LUAD-0087AS2 PDX (treatment day 21); 74.9 and 54.36 and 71.99 (2×) and 58.99 in the experiment with LUAD-0087AS2 PDX (treatment day 24); 72.18 and 54.36 and 71.99 and 57.83 and 56.67 in the experiment on LUAD-0087AS2 PDX (treatment day 29); 75.04 and 60.32 (2×) and 74.9 and 57.83 in the experiment with LUAD-0087AS2 PDX (treatment day 32); 75.04 and 60.32 and 74.9 (2×) and 57.83 in the experiment on LUAD-0087AS2 PDX (treatment day 35); 75.04 and 60.32 and 77.63 and 90.28 and 57.83 in the experiment on LUAD-0087AS2 PDX (treatment day 38). Further, the Tumor volume in the experiment with LUAD-0087AS2 PDX (treatment day 42) was 77.87 and 68.07 and 77.63 and 90.28 and 60.32; in the experiment with LUAD-0087AS2 PDX (treatment day 45) it was 77.87 and 68.07 and 70.69 (2×) and 60.32.
